Data reported in PubChem BioAssay (NCI).
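Method: 48-hour compound exposure of cells in 96-well plates, five concentrations, linear interpolation of endpoints. TGI marks complete inhibition of growth.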

How the values were obtained:
Assay in all cases: NCI tumour cell line growth inhibition, 48 h
SF-295 CNS = test system: SF-295 CNS
IGROV1 ovarian = test system: IGROV1 ovarian
SK-MEL-5 melanoma = test system: SK-MEL-5 melanoma
SNB-75 CNS = test system: SNB-75 CNS
COLO 205 colon = test system: COLO 205 colon
CCRF-CEM leukemia = test system: CCRF-CEM leukemia
HCC-2998 colon = test system: HCC-2998 colon
SNB-78 CNS = test system: SNB-78 CNS
SK-OV-3 ovarian = test system: SK-OV-3 ovarian
ACHN renal = test system: ACHN renal
NCI-H226 lung = test system: NCI-H226 lung
HL-60(TB) leukemia = test system: HL-60(TB) leukemia
KM20L2 colon = test system: KM20L2 colon
OVCAR-5 ovarian = test system: OVCAR-5 ovarian
K-562 leukemia = test system: K-562 leukemia
UACC-257 melanoma = test system: UACC-257 melanoma
MALME-3M melanoma = test system: MALME-3M melanoma
M19-MEL melanoma = test system: M19-MEL melanoma
DMS 114 small cell lung = test system: DMS 114 small cell lung
RXF 393 renal = test system: RXF 393 renal
NCI-H460 lung = test system: NCI-H460 lung
NCI-H23 lung = test system: NCI-H23 lung
A498 renal = test system: A498 renal
DMS 273 small cell lung = test system: DMS 273 small cell lung
LXFL 529 NSCLC = test system: LXFL 529 NSCLC
A549 NSCLC = test system: A549 NSCLC
U251 CNS = test system: U251 CNS
SK-MEL-2 melanoma = test system: SK-MEL-2 melanoma
SF-268 CNS = test system: SF-268 CNS
KM12 colon = test system: KM12 colon
OVCAR-4 ovarian = test system: OVCAR-4 ovarian
HOP-92 NSCLC = test system: HOP-92 NSCLC
786-0 renal = test system: 786-0 renal
SN12C renal = test system: SN12C renal
HCT-15 colon = test system: HCT-15 colon
HOP-18 NSCLC = test system: HOP-18 NSCLC
NCI-H522 lung = test system: NCI-H522 lung
OVCAR-3 ovarian = test system: OVCAR-3 ovarian
UO-31 renal = test system: UO-31 renal
HT29 colon = test system: HT29 colon
SK-MEL-28 melanoma = test system: SK-MEL-28 melanoma
HCT-116 colon = test system: HCT-116 colon
MOLT-4 leukemia = test system: MOLT-4 leukemia
EKVX NSCLC = test system: EKVX NSCLC
RPMI-8226 leukemia = test system: RPMI-8226 leukemia
UACC-62 melanoma = test system: UACC-62 melanoma
OVCAR-8 ovarian = test system: OVCAR-8 ovarian
DLD-1 colon = test system: DLD-1 colon
LOX IMVI melanoma = test system: LOX IMVI melanoma
SR leukemia = test system: SR leukemia
TK-10 renal = test system: TK-10 renal
SF-539 CNS = test system: SF-539 CNS
HOP-62 NSCLC = test system: HOP-62 NSCLC
M14 melanoma = test system: M14 melanoma
XF 498 CNS = test system: XF 498 CNS
CAKI-1 renal = test system: CAKI-1 renal
SNB-19 CNS = test system: SNB-19 CNS
SW-620 colon = test system: SW-620 colon

Measured: TGI

N#CCC(=O)N/N=C(\C(=O)Nc1ccc(Cl)c(Cl)c1)C1CN(c2ccccc2)N=C1N (stereo unspecified)
> 100 µM: SF-295 CNS | IGROV1 ovarian | SK-MEL-5 melanoma | SNB-75 CNS | COLO 205 colon | CCRF-CEM leukemia | HCC-2998 colon | SNB-78 CNS | SK-OV-3 ovarian | ACHN renal | NCI-H226 lung | HL-60(TB) leukemia | KM20L2 colon | OVCAR-5 ovarian | K-562 leukemia | UACC-257 melanoma | MALME-3M melanoma | M19-MEL melanoma | DMS 114 small cell lung | RXF 393 renal | NCI-H460 lung | NCI-H23 lung | A498 renal | DMS 273 small cell lung | LXFL 529 NSCLC | A549 NSCLC | U251 CNS | SK-MEL-2 melanoma | SF-268 CNS | KM12 colon | OVCAR-4 ovarian | HOP-92 NSCLC | 786-0 renal | SN12C renal | HCT-15 colon | HOP-18 NSCLC | NCI-H522 lung | OVCAR-3 ovarian | UO-31 renal | HT29 colon | SK-MEL-28 melanoma | HCT-116 colon | MOLT-4 leukemia | EKVX NSCLC | RPMI-8226 leukemia | UACC-62 melanoma | OVCAR-8 ovarian | DLD-1 colon | LOX IMVI melanoma | SR leukemia | TK-10 renal | SF-539 CNS | HOP-62 NSCLC | M14 melanoma

CC1OC(OC2C(CO)OC(O[C@H]3CC[C@@]4(C)C(=CC[C@H]5[C@@H]6C[C@@H]7O[C@]8(CC[C@@H](C)CN8)[C@@H](C)[C@@H]7[C@@]6(C)CC[C@@H]54)C3)C(O)C2O)C(O)C(O)C1O (stereo partly specified)
> 100 µM: SF-295 CNS | IGROV1 ovarian | SK-MEL-5 melanoma | SNB-75 CNS | COLO 205 colon | CCRF-CEM leukemia | XF 498 CNS | CAKI-1 renal | SNB-78 CNS | SK-OV-3 ovarian | ACHN renal | HL-60(TB) leukemia | KM20L2 colon | OVCAR-5 ovarian | K-562 leukemia | UACC-257 melanoma | MALME-3M melanoma | M19-MEL melanoma | SNB-19 CNS | DMS 114 small cell lung | RXF 393 renal | NCI-H460 lung | NCI-H23 lung | A498 renal | DMS 273 small cell lung | LXFL 529 NSCLC | A549 NSCLC | U251 CNS | SK-MEL-2 melanoma | SW-620 colon | SF-268 CNS | KM12 colon | OVCAR-4 ovarian | HOP-92 NSCLC | 786-0 renal | SN12C renal | HCT-15 colon | HOP-18 NSCLC | NCI-H522 lung | OVCAR-3 ovarian | UO-31 renal | HT29 colon | SK-MEL-28 melanoma | HCT-116 colon | MOLT-4 leukemia | EKVX NSCLC | RPMI-8226 leukemia | UACC-62 melanoma | OVCAR-8 ovarian | DLD-1 colon | LOX IMVI melanoma | TK-10 renal | SF-539 CNS | HOP-62 NSCLC | M14 melanoma

Fc1cccc2c1cc1ccc3cccc4ccc2c1c34
> 100 µM: SF-295 CNS | IGROV1 ovarian | SK-MEL-5 melanoma | SNB-75 CNS | COLO 205 colon | CCRF-CEM leukemia | HCC-2998 colon | XF 498 CNS | CAKI-1 renal | SNB-78 CNS | SK-OV-3 ovarian | ACHN renal | NCI-H226 lung | HL-60(TB) leukemia | KM20L2 colon | OVCAR-5 ovarian | K-562 leukemia | UACC-257 melanoma | MALME-3M melanoma | M19-MEL melanoma | SNB-19 CNS | RXF 393 renal | NCI-H23 lung | A498 renal | DMS 273 small cell lung | LXFL 529 NSCLC | A549 NSCLC | U251 CNS | SK-MEL-2 melanoma | SW-620 colon | SF-268 CNS | KM12 colon | OVCAR-4 ovarian | HOP-92 NSCLC | 786-0 renal | SN12C renal | HOP-18 NSCLC | NCI-H522 lung | OVCAR-3 ovarian | UO-31 renal | HT29 colon | SK-MEL-28 melanoma | HCT-116 colon | MOLT-4 leukemia | EKVX NSCLC | UACC-62 melanoma | OVCAR-8 ovarian | DLD-1 colon | LOX IMVI melanoma | SR leukemia | TK-10 renal | SF-539 CNS | HOP-62 NSCLC | M14 melanoma

O=C1C2CN(Cc3ccccc3)CC1CN(CC1CC1)C2
> 100 µM: SF-295 CNS | IGROV1 ovarian | SK-MEL-5 melanoma | SNB-75 CNS | COLO 205 colon | CCRF-CEM leukemia | XF 498 CNS | CAKI-1 renal | SK-OV-3 ovarian | ACHN renal | NCI-H226 lung | HL-60(TB) leukemia | KM20L2 colon | OVCAR-5 ovarian | K-562 leukemia | UACC-257 melanoma | MALME-3M melanoma | M19-MEL melanoma | SNB-19 CNS | DMS 114 small cell lung | RXF 393 renal | NCI-H460 lung | NCI-H23 lung | A498 renal | DMS 273 small cell lung | LXFL 529 NSCLC | A549 NSCLC | U251 CNS | SK-MEL-2 melanoma | SW-620 colon | SF-268 CNS | KM12 colon | OVCAR-4 ovarian | HOP-92 NSCLC | 786-0 renal | SN12C renal | HCT-15 colon | HOP-18 NSCLC | NCI-H522 lung | OVCAR-3 ovarian | UO-31 renal | HT29 colon | SK-MEL-28 melanoma | MOLT-4 leukemia | EKVX NSCLC | RPMI-8226 leukemia | UACC-62 melanoma | OVCAR-8 ovarian | LOX IMVI melanoma | TK-10 renal | SF-539 CNS | HOP-62 NSCLC | M14 melanoma
